Assay results published in patent US12454518B2, “Substituted N-(2-(2,6-dioxopiperidin-3-yl)-1,3-dioxoisoindolin-5-yl)arylsulfonamide analogs as modulators of cereblon protein” (ST. JUDE CHILDREN'S RESEARCH HOSPITAL, INC., priority 2020, dated 2025).
Like-named read-outs stand apart in the source and are kept apart here. One block for each compound: values may come before it.

Tests used:
Aqueous solubility assay = assay type: physicochemical; details: pH = 7.4, in triplicate
Protocol: The storage plate was sealed and incubated at RT for 18 h. The suspension was then filtered through a 96-well filter plate (pION Inc., Woburn, MA). 75 μL of filtrate was mixed with 75 μL 1-propanol to make the sample plate, and the UV spectrum of the sample plate was read. Calculations were carried out with μSOL Evolution software based on the area under the curve (AUC) of the UV spectrum of the sample and reference plates. All compounds were tested in triplicate.

GSPT1 = molecular target: T1, GSPT1 (Homo sapiens, UniProt P15170+Q96SW2); test: Immunoblot analysis of GSPT1 degradation in MV4-11 cells; assay type: cell-based; parameters: Dmax: dose or concentration left out as unconfirmed
T1 construct: endogenous in cells; host or cells: MV4-11
T1 sequence (P15170 whole entry): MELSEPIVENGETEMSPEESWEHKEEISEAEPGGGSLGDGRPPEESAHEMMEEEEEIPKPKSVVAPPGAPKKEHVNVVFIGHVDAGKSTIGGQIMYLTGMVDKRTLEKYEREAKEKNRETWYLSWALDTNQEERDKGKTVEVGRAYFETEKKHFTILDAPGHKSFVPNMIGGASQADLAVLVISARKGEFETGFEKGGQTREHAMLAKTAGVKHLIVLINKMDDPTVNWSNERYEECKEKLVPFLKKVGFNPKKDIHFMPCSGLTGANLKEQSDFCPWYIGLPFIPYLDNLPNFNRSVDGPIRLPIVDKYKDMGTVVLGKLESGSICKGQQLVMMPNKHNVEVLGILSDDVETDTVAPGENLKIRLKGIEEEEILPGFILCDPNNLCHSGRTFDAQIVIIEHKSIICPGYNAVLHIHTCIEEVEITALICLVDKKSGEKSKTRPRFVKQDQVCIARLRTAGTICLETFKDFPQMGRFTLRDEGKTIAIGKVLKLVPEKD
T1 sequence (Q96SW2 whole entry): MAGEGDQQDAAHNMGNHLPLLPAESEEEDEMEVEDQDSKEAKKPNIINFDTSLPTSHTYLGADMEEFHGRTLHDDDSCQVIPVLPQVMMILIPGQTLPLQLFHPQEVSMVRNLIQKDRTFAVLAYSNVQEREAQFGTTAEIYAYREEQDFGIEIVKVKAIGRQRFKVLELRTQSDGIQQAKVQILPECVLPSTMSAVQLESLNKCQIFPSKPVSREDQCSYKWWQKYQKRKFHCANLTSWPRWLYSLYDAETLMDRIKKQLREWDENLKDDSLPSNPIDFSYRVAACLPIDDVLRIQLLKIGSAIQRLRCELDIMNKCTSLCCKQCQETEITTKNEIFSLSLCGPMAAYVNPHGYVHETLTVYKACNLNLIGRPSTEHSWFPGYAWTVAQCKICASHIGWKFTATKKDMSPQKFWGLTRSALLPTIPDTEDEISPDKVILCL
T1 sequence (Q16531 2-1140 partner limits assumed): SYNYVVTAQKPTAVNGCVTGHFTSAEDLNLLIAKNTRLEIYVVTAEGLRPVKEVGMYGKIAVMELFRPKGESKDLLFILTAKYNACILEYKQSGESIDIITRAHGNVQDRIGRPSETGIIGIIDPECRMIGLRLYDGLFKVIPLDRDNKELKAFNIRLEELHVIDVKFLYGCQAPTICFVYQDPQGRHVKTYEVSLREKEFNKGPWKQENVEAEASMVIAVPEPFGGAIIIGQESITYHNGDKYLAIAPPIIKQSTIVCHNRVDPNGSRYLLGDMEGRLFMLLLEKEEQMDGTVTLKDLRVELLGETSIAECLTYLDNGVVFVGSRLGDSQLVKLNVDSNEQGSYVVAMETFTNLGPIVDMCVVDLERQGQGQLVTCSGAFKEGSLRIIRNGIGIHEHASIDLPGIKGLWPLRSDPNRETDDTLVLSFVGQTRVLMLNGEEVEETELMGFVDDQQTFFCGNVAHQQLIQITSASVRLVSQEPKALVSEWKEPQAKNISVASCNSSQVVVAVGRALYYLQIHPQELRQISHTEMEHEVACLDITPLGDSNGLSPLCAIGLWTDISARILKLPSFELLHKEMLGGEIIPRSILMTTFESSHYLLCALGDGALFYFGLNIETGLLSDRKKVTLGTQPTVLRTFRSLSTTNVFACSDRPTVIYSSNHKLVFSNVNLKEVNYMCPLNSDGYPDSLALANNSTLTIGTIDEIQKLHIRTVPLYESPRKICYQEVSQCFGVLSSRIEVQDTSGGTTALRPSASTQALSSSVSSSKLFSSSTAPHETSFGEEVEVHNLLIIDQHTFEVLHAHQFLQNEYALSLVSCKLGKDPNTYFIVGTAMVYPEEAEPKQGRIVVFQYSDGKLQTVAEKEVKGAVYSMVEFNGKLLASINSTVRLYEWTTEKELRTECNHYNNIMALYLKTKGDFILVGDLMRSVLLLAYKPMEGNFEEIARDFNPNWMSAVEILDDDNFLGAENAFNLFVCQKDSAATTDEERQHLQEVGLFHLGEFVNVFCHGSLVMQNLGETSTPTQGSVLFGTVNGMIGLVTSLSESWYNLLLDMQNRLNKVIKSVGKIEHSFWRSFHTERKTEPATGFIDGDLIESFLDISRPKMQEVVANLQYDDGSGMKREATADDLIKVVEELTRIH
Protocol: (§1) MV4-11 cells were seeded in 6-well plates (1×10^6 cells per well). After overnight incubation, the cells were treated with indicated concentrations for specific timepoints. […] After blocking the membrane with LI-COR TBS blocking buffer and incubation in primary antibody overnight, the corresponding protein signals were detected using IRDye secondary antibodies and Odyssey Imaging System. Image Studio Lite Ver 5.2 was used for blot quantification. […] IRDye®, 800CW Goat anti-Mouse IgG Secondary Antibody and IRDye® 680RD Goat anti-Rabbit IgG Secondary Antibody were used as secondary antibodies.

IKZF1 = molecular target: T2, IKZF1 (Homo sapiens, UniProt Q13422); test: Immunoblot analysis of IKZF1 degradation in MV4-11 cells; assay type: cell-based; details: for IKZF1 degradation at 4 hours: any of the concentrations tested
T2 construct: endogenous in cells; host or cells: MV4-11
T2 sequence (Q96SW2 whole entry partner): as the sequence (Q96SW2 whole entry) above
T2 sequence (Q16531 2-1140 partner limits assumed): as the sequence (Q16531 2-1140 partner limits assumed) above
T2 sequence (Q13422 whole entry): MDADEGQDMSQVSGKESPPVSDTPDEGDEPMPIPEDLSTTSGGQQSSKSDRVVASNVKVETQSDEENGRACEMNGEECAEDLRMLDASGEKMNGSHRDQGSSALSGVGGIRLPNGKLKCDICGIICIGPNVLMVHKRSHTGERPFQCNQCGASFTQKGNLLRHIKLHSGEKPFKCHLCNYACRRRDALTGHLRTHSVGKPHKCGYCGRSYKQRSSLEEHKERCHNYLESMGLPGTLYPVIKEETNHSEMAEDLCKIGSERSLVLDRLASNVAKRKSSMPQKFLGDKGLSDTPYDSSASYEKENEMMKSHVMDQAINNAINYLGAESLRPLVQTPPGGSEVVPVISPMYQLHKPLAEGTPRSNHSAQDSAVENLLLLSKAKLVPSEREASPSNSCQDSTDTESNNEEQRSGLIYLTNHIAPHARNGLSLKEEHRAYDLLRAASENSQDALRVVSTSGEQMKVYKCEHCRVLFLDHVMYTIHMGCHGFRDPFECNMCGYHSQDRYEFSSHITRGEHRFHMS
Protocol: as §1

[1] = tested on: caspase 3/7 activity in Mv4:11 cells; test: Caspase 3/7 activity assay; assay type: cell-based, human; details: Caspase-Glo, time points 4, 8 and 24 hours; 10 and 100 nM
[2] = Pharmacokinetics study in CD1 mice; assay type: in vivo; details: 3 mg/kg IV
Protocol: Healthy female CD1 mice (8-12 weeks old) weighing between 20 to 30 g were procured from Global, India. Three mice were housed in each cage. Temperature and humidity were maintained at 22±3° C. and 30-70%, respectively and illumination was controlled to give a sequence of 12 hr light and 12 hr dark cycle. Temperature and humidity were recorded by auto-controlled data logger system. All the animals were provided laboratory rodent diet (Envigo Research private Ltd, Hyderabad). Reverse osmosis water treated with ultraviolet light was provided ad libitum. Formulation vehicle: 5% v/v NMP: 5% v/v Solute HS-15 and 90% v/v normal saline. […] The dosing volume for intravenous was 5 mL/kg and for oral administration 10 mL/kg. Blood samples (approximately 60 μL) were collected under light isoflurane anesthesia (Surgivet®) from retro orbital plexus from a set of three mice at 0.08 (for IV only), 0.25, 0.5, 1, 2, 4, 6 (for PO only), 8, 12 and 24 hr. Immediately after blood collection, plasma was harvested by centrifugation at 4000 rpm, 10 min at […] and samples were stored at −70±10° C. until bioanalysis. […] Non-Compartmental-Analysis tool of Phoenix WinNonlin® (Version 8.0) was used to assess the pharmacokinetic parameters. Peak plasma concentration (Cmax) and time for the peak plasma concentration (Tmax) were the observed values. The areas under the concentration time curve (AUClast and AUCinf) were calculated by linear trapezoidal rule. The terminal elimination rate constant, ke was determined by regression analysis of the linear terminal portion of the log plasma concentration-time curve. Clearance was estimated as Dose/AUCinf and Vss as CL*MRT. The oral bioavailability was calculated as ratio of dose normalized AUC of oral and intravenous group multiplied by 100.

MV4-11 cells [3] = test: Lenalidomide competition assay; assay type: cell-based, human; details: lenalidomide 10 μM, 3 days
MV4-11 cells [4] = test: MV-4-11 cell viability assay; details: for EC50: Homo sapiens
[5] = molecular target: T3, GSPT1 HiBiT tag protein in HEK293 cells (Homo sapiens, UniProt P15170+Q96SW2); test: hGSPT1 HiBiT assay; assay type: cell-based; details: 4 hrs incubation, class symbols, read-out: GSPT1 HiBit EC50
T3 construct: HEK293_hGSPT1_HiBiT tagged cells were generated using CRISPR-Cas12a technology; endogenous in cells; host or cells: HEK293 (genome-edited at the GSPT1 locus, HiBiT knock-in)
T3 sequence (P15170 whole entry): as the sequence (P15170 whole entry) above
T3 sequence (Q96SW2 whole entry): as the sequence (Q96SW2 whole entry) above
T3 sequence (Q16531 2-1140 partner limits assumed): as the sequence (Q16531 2-1140 partner limits assumed) above
Protocol: hGSPT1 HiBiT cell line. HEK293_hGSPT1_HiBiT tagged cells were generated using CRISPR-Cas12a technology. Briefly, ˜400,000 HEK293 cells were transiently co-transfecting with precomplexed ribonuclear proteins (RNPs) consisting of 80 pmol of crRNA (IDT), 62 pmol of Cas12a protein (IDT), 3 ug of ssODN donor (IDT; AItR™ modifications), 78 pmol of electroporation enhancer (IDT), and 200 ng of pMaxGFP(Lonza). The transfection was performed via nucleofection (Lonza, 4D-Nucleofector™ X-unit) using solution P3 and program CM-130 in a small (20 ul) cuvette according to the manufacturer's recommended protocol. Five days post-nucleofection, cells were single cell sorted for GFP+(transfected) cells by FACs in 96-well plates and clonally selected. Clones were screened and verified for the desired modification via targeted deep sequencing using gene specific primers with partial Illumina adapter overhangs as previously described.^58 In brief, clonal cell pellets were harvested, lysed and used to generate gene specific amplicons with partial Illumina adapters in PCR #1. Amplicons were indexed in PCR #2 and pooled with other targeted amplicons for other loci to create sequence diversity. Additionally, 10% PhiX Sequencing Control V3 (Illumina) was added to the pooled amplicon library prior to running the sample on an Miseq Sequencer System (Illumina) to generate paired 2×250 bp reads. Samples were demultiplexed using the index sequences, fastq files were generated, and NGS analysis was performed using CRIS.py.^59 Final clones were authenticated using the PowerPlex® Fusion System (Promega) performed at the Hartwell Center (St. Jude) and tested negative for mycoplasma by the MycoAlert™Plus Mycoplasma Detection Kit (Lonza). Editing construct sequences and screening primers are listed below in Table 4.
hGSPT1 HiBiT assay. […] After 4 hrs incubation, the level of GSPT1 HiBiT tag protein was evaluated using Nano-Glo® HiBiT Lytic Detection System (Promega) according to the manufacturer's instruction.

6XHis-CRBN-DDB1 protein = molecular target: T4, 6XHis-CRBN-DDB1 protein (Homo sapiens, UniProt Q96SW2); test: CRBN fluorescence polarization assay; assay type: binding; details: class symbols; read-out: CRBN FP IC50
T4 construct: 6XHis (N)
T4 sequence (Q96SW2 whole entry): as the sequence (Q96SW2 whole entry) above
T4 sequence (Q16531 whole entry partner): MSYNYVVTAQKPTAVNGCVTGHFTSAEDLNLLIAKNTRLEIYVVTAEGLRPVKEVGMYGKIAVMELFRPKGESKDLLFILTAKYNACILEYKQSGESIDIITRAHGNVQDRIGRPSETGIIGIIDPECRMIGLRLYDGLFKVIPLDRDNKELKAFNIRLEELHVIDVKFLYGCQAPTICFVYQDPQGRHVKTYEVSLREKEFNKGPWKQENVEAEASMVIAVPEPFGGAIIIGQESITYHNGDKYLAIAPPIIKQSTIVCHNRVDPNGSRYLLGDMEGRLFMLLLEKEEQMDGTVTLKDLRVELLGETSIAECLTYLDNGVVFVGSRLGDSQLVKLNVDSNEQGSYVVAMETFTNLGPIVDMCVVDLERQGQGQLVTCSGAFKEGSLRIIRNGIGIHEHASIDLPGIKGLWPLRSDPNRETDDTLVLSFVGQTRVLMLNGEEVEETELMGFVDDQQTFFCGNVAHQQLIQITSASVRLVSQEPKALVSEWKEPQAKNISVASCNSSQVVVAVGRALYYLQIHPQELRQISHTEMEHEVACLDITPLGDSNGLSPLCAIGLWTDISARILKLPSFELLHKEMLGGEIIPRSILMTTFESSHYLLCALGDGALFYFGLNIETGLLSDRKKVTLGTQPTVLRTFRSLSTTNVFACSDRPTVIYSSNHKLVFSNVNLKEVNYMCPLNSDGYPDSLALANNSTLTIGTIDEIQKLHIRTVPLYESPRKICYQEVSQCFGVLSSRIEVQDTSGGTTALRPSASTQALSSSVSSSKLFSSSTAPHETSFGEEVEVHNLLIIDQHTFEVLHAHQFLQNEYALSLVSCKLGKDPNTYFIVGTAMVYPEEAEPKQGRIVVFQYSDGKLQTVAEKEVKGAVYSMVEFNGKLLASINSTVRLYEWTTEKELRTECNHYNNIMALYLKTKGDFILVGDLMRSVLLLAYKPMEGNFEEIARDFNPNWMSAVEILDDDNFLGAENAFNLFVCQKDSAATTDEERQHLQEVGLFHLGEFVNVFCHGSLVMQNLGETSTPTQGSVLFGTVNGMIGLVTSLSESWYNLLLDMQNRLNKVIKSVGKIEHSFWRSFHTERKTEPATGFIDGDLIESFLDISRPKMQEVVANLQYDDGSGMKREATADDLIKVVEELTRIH
Protocol: 6XHis-CRBN-DDB1 protein (200 nM) and Cy5-O-Len probe (30 nM) were combined in 20 mM HEPES pH 7, 150 mM NaCl, 0.005% Tween-20 assay buffer. […] The plates were incubated in the dark for 1 hour at room temperature and then read on an Envision plate reader (PerkinElmer, Massachusetts, USA).

[6] = MV4-11, 72 h, read-out: MV4-11 EC50
[7] = MV4-11, read-out: antiproliferative activity in MV4-11, EC50

Structure (SMILES): O=C1CCC(N2Cc3cc(CNC(=O)C(F)(F)c4ccc(Cl)cc4)ccc3C2=O)C(=O)N1 (stereo not drawn) [CC90009, reference compound]
Sol. (aqueous solubility) (Aqueous solubility assay): 77 µM

Structure (SMILES): O=C1CCC(N2Cc3cc(CNC(=O)C(F)(F)c4ccc(Cl)cc4)ccc3C2=O)C(=O)N1 (stereo not drawn) [CC-90009, reference compound]
Dmax at 10 µM (GSPT1; MV4-11 cells, 4 h, at 10 μM, read-out: GSPT1 maximum degradation efficacy, Dmax): 74%
Dmax (GSPT1; MV4-11 cells, 24 h, read-out: GSPT1 Dmax): > 90%
Dmax (IKZF1; 24 h): > 90%

Structure (SMILES): O=C1CCC(N2C(=O)c3ccc(NS(=O)(=O)c4ccccc4OC(F)(F)F)cc3C2=O)C(=O)N1 (stereo not drawn) [compound 1, N-(2-(2,6-dioxopiperidin-3-yl)-1,3-dioxoisoindolin-5-yl)-2-(trifluoromethoxy)benzenesulfonamide]
Sol. (aqueous solubility) (Aqueous solubility assay): 67 µM
IKZF1 degradation at 4 hours (IKZF1): did not significantly degrade IKZF1
IKZF1 protein abundance after 24 hours (IKZF1): dose-dependent decrease
time point at which caspase activation was observed [1]: 8 h
clearance [2]: 0.46 mL/min/kg
terminal elimination half-life (t1/2) [2]: 3.4 h
volume of distribution [2]: 0.15 L/kg
antiproliferative effect in presence of lenalidomide (MV4-11 cells [3]): abrogating the antiproliferative effects
EC50 (MV4-11 cells [4]; [6]): 1.5 nM
EC50 (MV4-11 cells [4]; [7]): 1.5 nM

Sol. (aqueous solubility) (Aqueous solubility assay): 64 µM
effects on the protein levels of GSPT1 by immunoblotting (GSPT1; MV4-11 cells): no effects
effects on the protein levels of IKZF1 by immunoblotting (IKZF1): no effects
IKZF1 protein abundance after 24 hours (IKZF1): dose-dependent decrease
EC50 (MV4-11 cells [4]; [6]): > 10000 nM
EC50 (MV4-11 cells [4]; [7]): 52 nM
Structure (SMILES): O=C1CCC(N2C(=O)c3ccc(NS(=O)(=O)c4cccc(OC(F)(F)F)c4)cc3C2=O)C(=O)N1 (stereo not drawn) [compound 2, N-(2-(2,6-dioxopiperidin-3-yl)-1,3-dioxoisoindolin-5-yl)-3-(trifluoromethoxy)benzenesulfonamide]

Structure (SMILES): Cc1c(Cl)cccc1S(=O)(=O)Nc1ccc2c(c1)C(=O)N(C1CCC(=O)NC1=O)C2=O (stereo not drawn) [compound 5, 3-chloro-N-(2-(2,6-dioxopiperidin-3-yl)-1,3-dioxoisoindolin-5-yl)-2-methylbenzenesulfonamide]
Sol. (aqueous solubility) (Aqueous solubility assay): 64 µM
Dmax (GSPT1; MV4-11, read-out: GSPT1 maximum degradation efficacy, Dmax): 60%
IKZF1 degradation at 4 hours (IKZF1): did not significantly degrade IKZF1
time point at which caspase activation was observed [1]: 24 h
antiproliferative effect in presence of lenalidomide (MV4-11 cells [3]): abrogating the antiproliferative effects
EC50 (MV4-11 cells [4]; [6]): 52 nM

EC50 (MV4-11 cells [4]; [6]): > 10000 nM
Structure (SMILES): Cc1ccc(S(=O)(=O)Nc2ccc3c(c2)C(=O)N(C2CCC(=O)NC2=O)C3=O)cc1Cl (stereo not drawn) [compound 7, 3-chloro-N-(2-(2,6-dioxopiperidin-3-yl)-1,3-dioxoisoindolin-5-yl)-4-methylbenzenesulfonamide]

Sol. (aqueous solubility) (Aqueous solubility assay): 71 µM
EC50 (MV4-11 cells [4]; [6]): > 10000 nM
Structure (SMILES): O=C1CCC(N2C(=O)c3ccc(NS(=O)(=O)c4ccccc4)cc3C2=O)C(=O)N1 (stereo not drawn) [compound 20, N-(2-(2,6-dioxopiperidin-3-yl)-1,3-dioxoisoindolin-5-yl)benzenesulfonamide]
cell potency in MV4-11 cells (in words) (MV4-11 cells [4]; MV4-11 cells): inactive

DC50 [5]: > 10000 nM
Structure (SMILES): O=C1CCC(N2Cc3cc(NS(=O)(=O)c4ccccc4)ccc3C2=O)C(=O)N1 (stereo not drawn) [compound 38, N-(2-(2,6-dioxopiperidin-3-yl)-1-oxoisoindolin-5-yl)benzenesulfonamide]

DC50 [5]: < 1000 nM
Structure (SMILES): O=C1CCC(N2Cc3cc(NS(=O)(=O)c4cccc(OC(F)(F)F)c4)ccc3C2=O)C(=O)N1 (stereo not drawn) [compound 43, N-(2-(2,6-dioxopiperidin-3-yl)-1-oxoisoindolin-5-yl)-3-(trifluoromethoxy)benzenesulfonamide]

DC50 [5]: > 10000 nM
Structure (SMILES): O=C1CCC(N2Cc3cc(NS(=O)(=O)c4ccccc4C(F)(F)F)ccc3C2=O)C(=O)N1 (stereo not drawn) [compound 44, N-(2-(2,6-dioxopiperidin-3-yl)-1-oxoisoindolin-5-yl)-2-(trifluoromethyl)benzenesulfonamide]

DC50 [5]: < 1000 nM
Structure (SMILES): CC(C)(C)c1ccc(S(=O)(=O)Nc2ccc3c(c2)CN(C2CCC(=O)NC2=O)C3=O)cc1 (stereo not drawn) [compound 46]

IC50 (6XHis-CRBN-DDB1 protein): < 1000 nM
Structure (SMILES): Cc1ccc(CS(=O)(=O)Nc2ccc3c(c2)C(=O)N(C2CCC(=O)NC2=O)C3=O)cc1 (stereo not drawn) [compound 58, N-(2-(2,6-dioxopiperidin-3-yl)-1,3-dioxoisoindolin-5-yl)-1-(p-tolyl)methanesulfonamide]

IC50 (6XHis-CRBN-DDB1 protein): < 1000 nM
Structure (SMILES): Cc1noc(C)c1S(=O)(=O)Nc1ccc2c(c1)C(=O)N(C1CCC(=O)NC1=O)C2=O (stereo not drawn) [compound 60, N-(2-(2,6-dioxopiperidin-3-yl)-1,3-dioxoisoindolin-5-yl)-3,5-dimethylisoxazole-4-sulfonamide]

IC50 (6XHis-CRBN-DDB1 protein): < 1000 nM
Structure (SMILES): O=C1CCC(N2C(=O)c3ccc(NS(=O)(=O)c4cccc(Cl)c4F)cc3C2=O)C(=O)N1 (stereo not drawn) [compound 61, 3-chloro-N-(2-(2,6-dioxopiperidin-3-yl)-1,3-dioxoisoindolin-5-yl)-2-fluorobenzenesulfonamide]

IC50 (6XHis-CRBN-DDB1 protein): < 1000 nM
DC50 [5]: > 10000 nM
Structure (SMILES): O=C1CCC(N2C(=O)c3ccc(NS(=O)(=O)c4ccc(F)cc4Cl)cc3C2=O)C(=O)N1 (stereo not drawn) [compound 67, 2-chloro-N-(2-(2,6-dioxopiperidin-3-yl)-1,3-dioxoisoindolin-5-yl)-4-fluorobenzenesulfonamide]
